Consider three molecules from US20250121083A1, “Tumor-Associated Calcium Signal Transducer 2 (TACSTD2) Antibody-Maytansine Conjugates and Methods of Use Thereof” (priority 2021, published 2025).

In series [1] the test system is TACSTD2-positive cell lines Bx-PC-3, NCI-H87, NCI-H292, and MDA-MB-468. In words: In vitro cytotoxicity, Cell Titer-Glo, 5 d. The format is cell-based. Conditions: 120 h, range over the four tested cell lines, read-out: IC50 concentrations. How it is done: The TACSTD2-positive cell lines, Bx-PC-3, […], NCI-H292, and MDA-MB-468 were obtained from the ATCC cell bank. The cells were maintained in RPMI 1640 or DMEM medium (Cellgro) supplemented with 10 or 20% fetal bovine serum (Invitrogen) and Glutamax (Invitrogen). 24 h prior to plating, cells were passaged to ensure log-phase growth. On the day of plating, 5000 cells/well were seeded onto 96-well plates in 100 μL normal growth medium supplemented with 10 IU penicillin and 10 μg/mL streptomycin (Cellgro). […] After 5 d, 100 μL/well of Cell Titer-Glo reagent (Promega) was added, and luminescence was measured using a Molecular Devices SpectraMax M5 plate reader. GraphPad Prism software was used for data analysis.

The test system of series [2] is MDA-MB-468 cells. In words: In vitro cytotoxicity, Cell Titer-Glo, 8 d. The format is cell-based. Conditions: Homo sapiens, 192 h. How it is done: Methods: The TACSTD2-positive cell line, MDA-MB-468 was obtained from the ATCC cell bank. The cells were maintained in DMEM medium supplemented with 10% fetal bovine serum (Invitrogen), 2× Glutamax (Invitrogen) and 1× antibiotic/antimycotic (Corning). On the day of plating, 1500 cells/well were seeded onto 96-well plates in 100 μL normal growth medium. Cells were treated at various concentrations with 20 μL of diluted analytes (sacituzumab compound 21 ADC or free belotecan payload), and the plates were incubated at 37° C. in an atmosphere of 5% CO2. After 8 d, 100 μL/well of Cell Titer-Glo reagent (Promega) was added, and luminescence was measured using a Molecular Devices SpectraMax M5 plate reader. GraphPad Prism software was used for data analysis.

Series [3] relates to NCI-H292 xenograft model. In words: NCI-H292 xenograft study. The format is in vivo, female SCID Beige mice. Conditions: 26 mg/kg x 4 doses, i.v.; 8 mice per group. From the text: Methods: For the NCI-H292 study, female SCID Beige mice (8 per group) were inoculated subcutaneously with 5 million NCI-H292 cells in PBS. Treatment began when the tumors reached an average of 116 mm^3. For the NCI-N87 study, female BALB/c nude mice (8 per group) were inoculated subcutaneously with 10 million NCI-N87 cells in a 1:1 solution of PBS:Matrigel. Treatment began when the tumors reached an average of 221 mm^3. […] Two general dosing schedules were used: either test articles were delivered once every 3 wk (arrowheads) or they were delivered two times in a three week period, on days 0 and 7 (arrows). The dosing cycles were repeated twice, so that animals in the first dosing group received a total of 2 doses, while the animals in the second dosing group received a total of 4 doses. The animals were monitored twice weekly for body weight and tumor size. Animals were euthanized when tumors reached 2000 mm^3.
For the results shown in FIG. 8, CR refers to an individual mouse that has no detectable tumor volume, which could be for only a short time, for example, one observation, or it could be for a longer period. […] The lines in FIG. 8 show the mean tumor volume across all mice in a group. Because 8 mice were used per group, the line shown in FIG. 8 might not go to zero; however, there could still be individual animals that attained CR.

For series [4] the following is noted: cited from earlier work.

As for `COc1cc2cc(c1Cl)N(C)C(=O)C[C@H](OC(=O)[C@H](C)N(C)C(C)=O)[C@]1(C)O[C@H]1[C@H](C)[C@@H]1C[C@@](O)(NC(=O)O1)[C@H](OC)/C=C/C=C(\C)C2` [free maytansine, maytansine], the results for the IC50 in series [1] and in series [2] were 0.05 to 0.23 nM and 0.77 nM, respectively.
As to Trodelvy [reference compound], the “complete responses (CRs)” value in series [3] was 1/8.

B1: DS-1062: Daiichi Sankyo's TROP-2-targeted ADC (conjugate, chains of the INN, looked up)
VH: QVQLVQSGAEVKKPGASVKVSCKASGYTFTTAGMQWVRQAPGQGLEWMGWINTHSGVPKYAEDFKGRVTISADTSTSTAYLQLSSLKSEDTAVYYCARSGFGSSYWYFDVWGQGTLVTVSS
VL: DIQMTQSPSSLSASVGDRVTITCKASQDVSTAVAWYQQKPGKAPKLLIYSASYRYTGVPSRFSGSGSGTDFTLTISSLQPEDFAVYYCQQHYITPLTFGQGTKLEIK
modifications: deruxtecan payload
notes: Daiichi Sankyo's TROP-2-targeted ADC
For the molecule B1, the intestinal toxicity result in series [4] (10 mg/kg) is recorded as “toxicity findings in the intestines”. For the same molecule, in series [4] (>10 mg/kg, skin, cornea, oral, esophageal, vaginal mucosa), the “safety signals in healthy tissues that express TROP-2” value is listed as “key adverse safety signals (including necrosis)”.
